From ChEMBL document CHEMBL1201862, “PubChem BioAssay data set” (2004)
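Protocol summary: plate cells (96-well), add compound at 5 concentrations, incubate 48 h, interpolate endpoints linearly. Here, GI50 denotes the concentration required for 50% inhibition of growth.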 The source made the active and inactive calls. Cut-off read from the data, not from the text of the source: active = GI50 up to about 1.1 µM and inactive = higher. Positions of bridges follow the written chain, without caps; N, C: chain ends. Residues, ends and D or L forms follow the SMILES beside them.

What was measured:
Test in all cases: growth of human tumour cells (NCI), 48 h
DLD-1 = tested on: DLD-1
M19-MEL = tested on: M19-MEL
XF498 = tested on: XF498
SNB-78 = tested on: SNB-78
BT-549 = tested on: BT-549
T47D = tested on: T47D
MDA-N = tested on: MDA-N
NCI/ADR-RES = tested on: NCI/ADR-RES

Measured: GI50

Cc1ccc(S(=O)(=O)NC2CCCCO2)cc1 (stereo not drawn)
inactive: DLD-1 > 100 µM | M19-MEL > 100 µM | XF498 > 100 µM | SNB-78 > 100 µM

O=c1/c(=C/c2ccccn2)sc2nc3cc4c(cc3n12)OCCO4
inactive: BT-549 > 100 µM | T47D > 100 µM | MDA-N > 100 µM | NCI/ADR-RES > 100 µM

O=C(CNc1nncs1)NO
inactive: DLD-1 > 100 µM | M19-MEL > 100 µM | SNB-78 > 100 µM

C=CCCCCCCCCC(=O)ON(Cc1ccc(O)c(OC)c1)C(=O)C(F)(F)F
inactive: T47D 72.1 µM | NCI/ADR-RES > 100 µM

CN[C@H](C)[C@@H](OC)c1ccccc1
inactive: DLD-1 > 100 µM | M19-MEL > 100 µM | XF498 > 100 µM | SNB-78 > 100 µM

O=C(c1ccc(/N=C/c2ccccc2O)cc1)c1ccc(/N=C/c2ccccc2O)cc1
inactive: BT-549 > 100 µM | T47D 62.8 µM | NCI/ADR-RES > 100 µM

C=CCC1(O)C(=O)OC2C(O)COC21O (stereo not drawn)
inactive: BT-549 > 100 µM | T47D > 100 µM | MDA-N > 100 µM | NCI/ADR-RES > 100 µM

OCC1OC(n2cnc3c2N=CNC[C@H]3O)C(Cl)C1O (stereo partly drawn)
inactive: BT-549 > 100 µM | T47D > 100 µM | MDA-N > 100 µM | NCI/ADR-RES > 100 µM

CC1(C)CCCCCCCCCC(C)(CCCO)C1=O (stereo not drawn)
inactive: BT-549 17.7 µM | T47D 15.6 µM | MDA-N 16.4 µM | NCI/ADR-RES 16.6 µM

COC(=O)c1c(OC(C)=O)ccc2c1c1c(OC(C)=O)c3ccccc3c(OC(C)=O)c1n2Cc1ccccc1
inactive: BT-549 4.76 µM | T47D 1.16 µM | MDA-N 14.2 µM | NCI/ADR-RES 7.06 µM

CCC(C)C1NC(=O)C(CC(C)C)NC(=O)C(C(C)C)NC(=O)C2CSSCC(NC1=O)C(=O)N2 (stereo not drawn) (cyclo(CCVLI); disulfide 1-2; configuration not given here)
inactive: NCI/ADR-RES 2.55 µM
active: BT-549 0.198 µM | T47D 0.0305 µM | MDA-N 0.184 µM

O=C(ON=C1c2ccccc2C(Br)C(Br)c2ccccc21)c1ccccc1 (stereo not drawn)
inactive: BT-549 19.6 µM | T47D 9.57 µM | MDA-N 17.8 µM | NCI/ADR-RES 22.8 µM

C=Cc1cncc(C#N)c1CCc1c(C#N)cncc1C=C
inactive: DLD-1 > 10 µM | M19-MEL > 10 µM | XF498 > 10 µM | SNB-78 > 10 µM

C=C1C(=O)[C@]23C[C@H]1C[C@@H](O)[C@H]2[C@]1(COC3=O)[C@@H](OC(C)=O)CC[C@@](C)(COC(C)=O)[C@H]1C=O [LOXOTHYRIN A]
inactive: BT-549 23.7 µM | T47D 11.7 µM | MDA-N > 50 µM | NCI/ADR-RES > 50 µM

CN(C)Cc1cc(C(=O)/C=C/c2ccc(Cl)c(Cl)c2)cc(CN(C)C)c1O
inactive: T47D 4.41 µM | MDA-N 3.08 µM | NCI/ADR-RES 2.24 µM

COC(=O)[C@H](C)NC(=O)[C@H](NS(=O)(=O)c1nc2ccccc2s1)c1ccccc1
inactive: BT-549 34.7 µM | T47D 15.3 µM | NCI/ADR-RES 30.3 µM

O=C1OC(C(O)C(O)C(O)CO)C(O)C1O (stereo not drawn)
inactive: BT-549 > 100 µM | T47D > 100 µM | NCI/ADR-RES > 100 µM

CC(C)=CCc1c(O)cc2oc(-c3ccc(O)cc3O)cc(=O)c2c1O
inactive: BT-549 29.8 µM | T47D 19 µM | MDA-N 25.2 µM | NCI/ADR-RES 33.3 µM

O=C1c2ccccc2C(=O)c2c1ccc1nc3c(nc21)-c1c2ccccc2cc2cccc-3c12
inactive: BT-549 80.2 µM | T47D 33.6 µM | MDA-N 32.6 µM | NCI/ADR-RES 36.3 µM

C[C@]12CC[C@H](O)CC1=CC[C@@H]1C2CC[C@]2(C)c3nn(-c4ccc(F)cc4)nc3CC12 (stereo partly drawn)
inactive: BT-549 63.4 µM | T47D 24.4 µM | MDA-N 81.8 µM

Cc1ccc(-c2c(C#N)c(-c3ccc(N(C)C)cc3)c(C#N)c(=O)n2NS(=O)(=O)c2ccccc2)cc1
inactive: BT-549 37.2 µM | MDA-N 45.9 µM | NCI/ADR-RES 39.4 µM

COC(=O)C1(Cc2ccccc2)Cc2cc3c(cc2C1O)CCC3 (stereo not drawn)
inactive: BT-549 15.5 µM | T47D 28.5 µM | MDA-N 17.5 µM | NCI/ADR-RES 18.4 µM

CCC/C(Cl)=N\OC(=O)Nc1ccc(Br)cc1
inactive: BT-549 17.7 µM | T47D 7.24 µM | MDA-N 13.2 µM | NCI/ADR-RES 8.99 µM

CC1=NN(c2ccccc2)C(=O)C1/N=N/c1ccc([As](=O)(O)O)c(O)c1 (stereo not drawn)
inactive: BT-549 > 100 µM | T47D 60.8 µM | MDA-N > 100 µM | NCI/ADR-RES > 100 µM

C=CCOCn1cnc2c(N)ncnc21
inactive: T47D > 100 µM | MDA-N > 100 µM | NCI/ADR-RES > 100 µM

CC(O)(/C=C/c1ccccc1)P(=O)(O)c1ccccc1 (stereo not drawn)
inactive: T47D > 100 µM | MDA-N > 100 µM | NCI/ADR-RES > 100 µM

Cc1nn(C(=O)c2ccccc2O)c2c1C(c1ccc(O)cc1O)SC(=N)N2 (stereo not drawn)
inactive: BT-549 2.52 µM | MDA-N 5.78 µM | NCI/ADR-RES 3.33 µM

O=C(c1ccccc1)N(C(=O)c1ccccc1)c1nc(SCc2ccccc2)ns1
inactive: BT-549 28.8 µM | T47D 25 µM | MDA-N 26.5 µM | NCI/ADR-RES 28.3 µM

CC(=O)/C=C/C=C(\C)CC/C=C(\C)CC(C)C
inactive: T47D 14.6 µM | MDA-N 30.2 µM

CC1(C)OC2C(CO)OC(n3cnc(N)nc3=O)C2O1 (stereo not drawn)
inactive: BT-549 > 100 µM | T47D > 100 µM | MDA-N > 100 µM | NCI/ADR-RES > 100 µM

CC1=Nn2c(nc3sc4c(c3c2=O)CCCC4)SC1
inactive: BT-549 31.5 µM | T47D 58.5 µM | MDA-N 28.4 µM | NCI/ADR-RES 98.6 µM

Cc1ccc(/C(O)=C/c2nc3ccccc3oc2=O)cc1
inactive: BT-549 44.4 µM | T47D 77.6 µM | MDA-N 23.6 µM | NCI/ADR-RES 25.5 µM

Cc1cc(O)nc(NNC(C#N)c2ccc([N+](=O)[O-])cc2)n1 (stereo not drawn)
inactive: DLD-1 > 100 µM | M19-MEL > 100 µM | SNB-78 42.6 µM

CC(=O)OCC12C(OC(C)=O)C(=O)C3C(OC(C)=O)C14OC3(C)COC(=O)c1cccnc1C(C)C(C)C(=O)OC(C(OC(C)=O)C2OC(C)=O)C4(C)O (stereo not drawn)
inactive: BT-549 > 100 µM | T47D > 100 µM | MDA-N > 100 µM

COc1cc2c(cc1OCCCC(=O)Nc1cc(C(=O)Nc3cc(C(=O)NCCCN(C)C)n(C)n3)n(C)n1)N=CC1CCCN1C2=O (stereo not drawn)
inactive: BT-549 12.1 µM | T47D 14.2 µM | MDA-N 16.6 µM | NCI/ADR-RES 20 µM

COc1ccc(-c2nc3ncccn3c2-c2ccc([S+](C)[O-])cc2)cc1 (stereo not drawn)
inactive: BT-549 > 100 µM | MDA-N 36.9 µM | NCI/ADR-RES > 100 µM

O=C1/C(=C/c2cccs2)NC(=S)N1CN1CCCCC1
inactive: MDA-N > 100 µM | NCI/ADR-RES > 100 µM

O=C1CC(C(O)C(O)C(O)CO)CC(=O)N1 (stereo not drawn)
inactive: BT-549 74 µM | T47D > 100 µM | MDA-N > 100 µM | NCI/ADR-RES > 100 µM

CN(C)C1(C#N)CCC2(CC1)OCCO2
inactive: M19-MEL > 100 µM | SNB-78 > 100 µM

C=Cc1ccc(C)[n+](C[Si](C)(C)O[Si](C)(C)C[n+]2cc(C=C)ccc2C)c1
inactive: DLD-1 > 100 µM | M19-MEL > 100 µM | SNB-78 > 100 µM

Cc1ccc(SCC(CF)OC(C)n2cnc3c(Cl)nc(N)nc32)cc1 (stereo not drawn)
inactive: BT-549 16 µM | T47D 54.6 µM | MDA-N 89.1 µM | NCI/ADR-RES 25.1 µM

O=C(O)c1ccc([N+](=O)[O-])c(P(=O)(O)O)c1
inactive: BT-549 > 100 µM | T47D > 100 µM | MDA-N > 100 µM | NCI/ADR-RES > 100 µM

N=C(N)NS(=O)(=O)c1ccc(NCc2c3ccccc3[n+]([O-])c3ccccc23)cc1
inactive: DLD-1 28.2 µM | M19-MEL 22.9 µM | SNB-78 31.6 µM

O=C1C(C(c2ccc([N+](=O)[O-])cc2)N2CCOCC2)=C(O)C(c2ccccc2)N1c1ccccc1 (stereo not drawn)
inactive: BT-549 > 10 µM | T47D > 10 µM | MDA-N > 10 µM | NCI/ADR-RES > 10 µM

Cc1cc(=O)[nH]c2cc(NC(=O)C(CCCNC(=N)N)NC(=O)OCc3ccccc3)ccc12 (stereo not drawn)
inactive: BT-549 > 100 µM | T47D > 100 µM | MDA-N > 100 µM | NCI/ADR-RES > 100 µM

c1ccc(Cc2cc(-c3ccccc3)[nH]n2)cc1
inactive: T47D 33.3 µM | NCI/ADR-RES 21.8 µM

O=c1[nH]c(N/N=C\C(O)C(O)C(O)CO)nc2ccccc12 (stereo not drawn)
inactive: BT-549 > 100 µM | T47D > 100 µM | MDA-N > 100 µM | NCI/ADR-RES > 100 µM

Nc1ncnc2c1ncn2[C@@H]1O[C@H](COP(=O)(O)OP(=O)(O)OC[C@H]2O[C@@H](OCCCO)[C@H](O)[C@@H]2O)[C@@H](O)[C@H]1O
inactive: BT-549 > 100 µM | T47D > 100 µM | MDA-N 78.9 µM | NCI/ADR-RES > 100 µM

Cc1cc(C)c2ccc(N3CCNCC3)nc2n1
inactive: BT-549 > 100 µM | MDA-N > 100 µM | NCI/ADR-RES > 100 µM

C[N+]12CCCCC1C(CN1C(=O)Cc3c4ccccc4c(c4ccccc34)CC1=O)CCC2 (stereo not drawn)
inactive: BT-549 > 100 µM | T47D > 100 µM | MDA-N > 100 µM | NCI/ADR-RES > 100 µM

Cc1ccc(-c2cc(O)c3nc4ccccc4n3c2)cc1
inactive: BT-549 > 100 µM | T47D > 100 µM | MDA-N > 100 µM | NCI/ADR-RES > 100 µM

O=C(Cc1ccc(OCc2cccc(Cl)c2)cc1)NO
inactive: BT-549 26.2 µM | T47D 5.74 µM | MDA-N 58.9 µM | NCI/ADR-RES 12.2 µM

CC/C(Cl)=N\OC(=O)Nc1ccc(F)c([N+](=O)[O-])c1
inactive: BT-549 16.7 µM | MDA-N 17.7 µM | NCI/ADR-RES 26.9 µM

Cc1ccc(/N=C2\C(=N/c3ccc(C)cc3)N(c3ccc(C)cc3)C(=S)N2C(=O)c2ccccc2)cc1
inactive: BT-549 > 100 µM | T47D > 100 µM | MDA-N > 100 µM | NCI/ADR-RES > 100 µM

CC(N/N=C(\S)N1CCCC1)c1cccnn1 (stereo not drawn)
active: BT-549 0.433 µM | T47D 0.553 µM | NCI/ADR-RES 0.48 µM
inactive: MDA-N 1.84 µM
